Test results: ChEMBL document CHEMBL1777780, “Discovery of XEN907, a spirooxindole blocker of NaV1.7 for the treatment of pain” (Bioorg Med Chem Lett, 2011)

Experiments:
[1] = Permeability from apical to basolateral side in human Caco2 cells; assay type: ADME, cell-based; details: Caco-2, read-out: permeability
[2] = Permeability from basolateral to apical side in human Caco2 cells; assay type: ADME, cell-based; details: Caco-2, read-out: permeability
[3] = Half life in Lewis rat at 3 mg/kg, iv; assay type: ADME, organism-based; design: dose 3 mg/kg, route intravenous; details: in vivo
[4] = AUClast in Lewis rat at 10 mg/kg, po; assay type: ADME, organism-based; design: time 0 - last, dose 10 mg/kg, route oral; details: plasma
[5] = Clearance in Lewis rat at 3 mg/kg, iv; assay type: ADME, organism-based; design: dose 3 mg/kg, route intravenous; details: in vivo
[6] = AUClast in Lewis rat at 3 mg/kg, iv; assay type: ADME, organism-based; design: time 0 - last, dose 3 mg/kg, route intravenous; details: plasma
[7] = Metabolic stability in human hepatocytes assessed as compound remaining after 2 hrs; assay type: ADME, cell-based, Hepatocyte; details: read-out: Stability
[8] = Volume of distribution at steady state in Lewis rat at 3 mg/kg, iv; assay type: ADME, organism-based; design: dose 3 mg/kg, route intravenous; details: in vivo, read-out: Vdss
[9] = Cmax in Lewis rat at 10 mg/kg, po; assay type: ADME, organism-based; design: dose 10 mg/kg, route oral; details: in vivo
[10] = Oral bioavailability in Lewis rat at 10 mg/kg; assay type: ADME, organism-based; details: in vivo
[11] = Cmax in Lewis rat at 3 mg/kg, iv; assay type: ADME, organism-based; design: dose 3 mg/kg, route intravenous; details: in vivo
[12] = Metabolic stability in rat hepatocytes assessed as compound remaining after 2 hrs; assay type: ADME, cell-based, Hepatocyte; details: read-out: Stability
[13] = Tmax in Lewis rat at 10 mg/kg, po; assay type: ADME, organism-based; design: dose 10 mg/kg, route oral; details: in vivo
[14] = Metabolic stability in dog hepatocytes assessed as compound remaining after 2 hrs; assay type: ADME, cell-based, Canis lupus familiaris, Hepatocyte; details: read-out: Stability

Row | SMILES | Papp A→B [1] | Papp B→A [2] | further results
1 | O=C1N(Cc2ccc(Cl)cc2)c2ccccc2C1(O)c1ccc2c(c1)OCO2 (configuration not stated) | 9 ×10⁻⁶ cm/s | 10.9 ×10⁻⁶ cm/s | 
2 | O=C1N(Cc2ccc(Cl)cc2)c2ccccc2C1(O)c1ccc2c(c1)OCCO2 (configuration not stated) | 1.9 ×10⁻⁶ cm/s | 3.5 ×10⁻⁶ cm/s | 
3 | O=C1N(Cc2ccc(Cl)cc2)c2ccccc2C1(O)c1ccccc1 (configuration not stated) | 13.1 ×10⁻⁶ cm/s | 12.5 ×10⁻⁶ cm/s | 
4 | O=C1N(CCC2CC2)c2ccccc2C1(O)c1ccc2c(c1)OCO2 (configuration not stated) | 19.9 ×10⁻⁶ cm/s | 19.8 ×10⁻⁶ cm/s | 
5 | CCCCCN1C(=O)C(O)(c2ccc3c(c2)OCO3)c2ccccc21 (configuration not stated) | 28.9 ×10⁻⁶ cm/s | 25.4 ×10⁻⁶ cm/s | 
6 | CCC(C)CCN1C(=O)C(O)(c2ccc3c(c2)OCO3)c2ccccc21 (configuration not stated) | 10.5 ×10⁻⁶ cm/s | 11.5 ×10⁻⁶ cm/s | 
7 | COc1ccc(CN2C(=O)C(O)(c3ccc4c(c3)OCO4)c3ccccc32)cc1 (configuration not stated) | 6.5 ×10⁻⁶ cm/s | 11.9 ×10⁻⁶ cm/s | 
8 | O=C1N(Cc2ccccc2)c2ccccc2C1(O)c1ccc2c(c1)OCO2 (configuration not stated) | 9.3 ×10⁻⁶ cm/s | 13.6 ×10⁻⁶ cm/s | 
9 | O=C1N(Cc2ccc3c(c2)OCO3)c2ccccc2C1(O)c1ccc2c(c1)OCO2 (configuration not stated) | 7.7 ×10⁻⁶ cm/s | 12.1 ×10⁻⁶ cm/s | 
10 | O=C1N(CC2CCC2)c2ccccc2C1(O)c1ccc2c(c1)OCO2 (configuration not stated) | 21.7 ×10⁻⁶ cm/s | 21.1 ×10⁻⁶ cm/s | 
11 | O=C1N(Cc2ccc(C(F)(F)F)cc2)c2ccccc2C1(O)c1ccc2c(c1)OCO2 (configuration not stated) | 5.4 ×10⁻⁶ cm/s | 7.9 ×10⁻⁶ cm/s | 
12 | CCCCCN1C(=O)C(C)(c2ccc3c(c2)OCO3)c2ccccc21 (configuration not stated) | 2.4 ×10⁻⁶ cm/s | 3.6 ×10⁻⁶ cm/s | 
13 | CCCCCN1C(=O)C(N)(c2ccc3c(c2)OCO3)c2ccccc21 (configuration not stated) | 22 ×10⁻⁶ cm/s | 22.3 ×10⁻⁶ cm/s | 
14 | CCCCCN1C(=O)C2(COc3cc4c(cc32)OCO4)c2ccccc21 (configuration not stated) | 5.9 ×10⁻⁶ cm/s | 7.2 ×10⁻⁶ cm/s | half-life [3]: 2.6 h; AUC(0-t) [4]: 143 ng·h/mL; clearance [5]: 157 mL/min/kg; AUC(0-t) [6]: 320 ng·h/mL; remaining at 2 h [7]: 34%; Vd [8]: 35 L/kg; Cmax [9]: 35 ng/mL; bioavailability [10]: 13%; Cmax [11]: 953 ng/mL; remaining at 2 h [12]: 21%; Tmax [13]: 0.33 h; remaining at 2 h [14]: 46%
15 | CCCCCN1C(=O)C2(CCc3cc4c(cc32)OCO4)c2ccccc21 (configuration not stated) | 1.1 ×10⁻⁶ cm/s | 1.6 ×10⁻⁶ cm/s | 
